Measured values from patent US9561190B2, “Nonwoven membrane as a drug delivery system” (priority 2012, dated 2017).

Key:
Assay type in all cases: cell-based
LAN-1 = assay: MTS cell viability assay, soluble SN-38 on LAN-1 neuroblastoma cells; conditions: LAN-1 cells, 4 hours exposure, viability 4 days later
Experimental: (§1) To determine whether the antitumor activity of the drug was conserved after the manufacturing process of the membranes, the present inventors co-incubated the membranes with neuroblastoma cell lines. In a previous experiment, the present inventors determined the extent to which SN-38 inhibits neuroblastoma. Such experiment was performed by exposing LAN-1, SK-N-BE(2)c and SK-N-AS cell lines to a fresh solution of SN-38 in RPMI, prepared from a stock solution of SN-38, 1 mg/mL in DMSO. Briefly, cells were plated in 96 well plates, 3000 cells per well, in RPMI medium. 24 hours later, the cells were exposed to SN-38 (concentration range 10-0.000001 μM). After 4 hours, the drug was withdrawn and fresh medium was added. The viability of the cell culture was quantified 4 days later, by using the MTS cell viability assay (Promega).
(§2) Each dot represents the mean (±SD) of 3-5 wells.

SK-N-BE(2)c = assay: MTS cell viability assay, soluble SN-38 on SK-N-BE(2)c neuroblastoma cells; conditions: SK-N-BE(2)c cells, 4 hours exposure, viability 4 days later
Experimental: as §1, §2

SK-N-AS = assay: MTS cell viability assay, soluble SN-38 on SK-N-AS neuroblastoma cells; conditions: 4 hours exposure, viability 4 days later
Experimental: as §1, §2

CCc1c2c(nc3ccc(O)cc13)-c1cc3c(c(=O)n1C2)COC(=O)[C@]3(O)CC [SN-38, 7-ethyl-10-hydroxycamptothecin]
IC50 (LAN-1): 0.01 µM | IC50 (SK-N-BE(2)c): 0.046 µM | IC50 (SK-N-AS): 0.19 µM
